Experimental data taken from patent publication US7018990B2, “Combination of a factor Xa inhibitor and clopidogrel” (Bristol-Myers Squibb Company, priority 2002, dated 2006).

Tests used:
rabbits [1] = assay: Electrically induced carotid artery thrombosis in anesthetized rabbits (clot inhibition, carotid blood flow); type: in vivo
Procedure: Rabbits were anesthetized with ketamine (50 mg/kg i.m.) and xylazine (10 mg/kg i.m.) and then surgically prepared with arterial and venous catheters. An electromagnetic flow probe was placed on a segment of an isolated carotid artery to monitor blood flow. Thrombus formation was induced by electrical stimulation of the carotid artery for 3 min at 4 mA using an external stainless-steel bipolar electrode. Carotid blood flow was measured continuously over a 45-min period to monitor thrombus occlusion. Compound A was infused intravenously whereas clopidogrel was infused into the portal vein. Both agents were infused 1 hour prior to the electrical stimulation of the carotid artery and continuously during the 45-min period.
(§1) The same experimental protocol as described in Example 1 was used in this study. Aspirin was infused intravenously whereas clopidogrel was infused into the portal vein. Both agents were infused 1 hour prior to the electrical stimulation of the carotid artery and the cuticle transection, and continuously to the end of the experiment.
The same experimental protocol as described in Example 1 was used in this study. Aspirin and Compound A were infused intravenously.

rabbits [2] = assay: Cuticle bleeding time in anesthetized rabbits; conditions: clopidogrel 1 mg/kg/hr infused into the portal vein, compared to the vehicle-group
Procedure: The bleeding time effects of Compound A, clopidogrel, and their combination were examined in anesthetized rabbits. Rabbits were anesthetized as described above and their hind paws were shaved. A standard cut was made at the apex of the cuticle with a razor blade. Blood was allowed to flow freely by keeping the bleeding site in contact with 37° C. warm lactated Ringer's solution. Bleeding time was defined as the time after transection when bleeding was ceased. It was measured by averaging the bleeding time of three nail cuticles in the control and treatment period. Percentage change in cuticle bleeding time is calculated by comparing the bleeding time taken in the treatment period to the control bleeding time. Compounds were infused as described above.
as §1

[3] = Compound A 0.1 mg/kg/hr infused intravenously
[4] = aspirin 0.3 mg/kg/hr infused intravenously
[5] = clopidogrel 1 mg/kg/hr infused into the portal vein

Compound: CN(C)Cc1nccn1-c1ccc(NC(=O)c2cc(C(F)(F)F)nn2-c2ccc3onc(N)c3c2)c(F)c1.Cl [Compound A, 1-(3′-aminobenzisoxazol-5′-yl)-3-trifluoromethyl-5-[[4-[(2′-dimethylaminomethyl)imidazol-1′-yl]-2fluorophenyl]aminocarbonyl]pyrazole-hydrochloric acid salt]
- carotid blood flow (rabbits [1]; [3]): increase in carotid blood flow
- inhibition of clot formation (rabbits [1]; [3]): moderate inhibition of clot formation

Compound: CC(=O)Oc1ccccc1C(=O)O [aspirin, acetylsalicyclic acid]
- carotid blood flow (rabbits [1]; [4]): not effective
- inhibition of clot formation (rabbits [1]; [4]): not effective in inhibiting the formation of clot

Compound: COC(=O)[C@H](c1ccccc1Cl)N1CCc2sccc2C1 [clopidogrel, Clopidogrel]
- bleeding time (rabbits [2]): increased the bleeding time significantly
- carotid blood flow (rabbits [1]; [5]): increase in carotid blood flow
- inhibition of clot formation (rabbits [1]; [5]): moderate inhibition of clot formation
